Eleven compounds from ChEMBL document CHEMBL1201862, “PubChem BioAssay data set” (2004) can be followed below.

Where “and” joins values, the source holds several entries; their conditions need not be identical. Identical values can stand only once.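 All cell lines were grown in 96-well plates and treated with compound for 48 hours. Here, GI50 denotes the concentration required for 50% inhibition of growth.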 Calls of active or inactive are those of the source. Cut-off read from the data, not from the text of the source: active = GI50 up to about 1.1 µM and inactive = higher.

Among the test systems are A498; A549; CAKI-1; CCRF-CEM; EKVX; HCC 2998; HL-60; HOP-62; HOP-92; M14; NCI-H522; SK-MEL-5; SNB-19; SNB-75; TK-10; U-251; UACC-62; UO-31; NCI/ADR-RES.
Test in all cases: NCI anticancer screen, dose series, 48 h

In the case of `Cc1cn2c(=O)c3ccccc3nc2s1`, the GI50 in the test with A498, with A549, with CAKI-1, with CCRF-CEM, with EKVX and in the test on HCC 2998 was > 100 µM (inactive) in each case. The GI50 in the test with HL-60, in the test on HOP-62, in the test on HOP-92, in the test with M14, with NCI-H522 and in the test with SK-MEL-5 was > 100 µM (inactive) throughout. For the same compound, the GI50 in the test on SNB-19 was > 100 µM (inactive); in the test with SNB-75 it was 92.3 µM (inactive); in the test with TK-10, > 100 µM (inactive); in the test on U-251 it was > 100 µM (inactive); in the test with UACC-62, > 100 µM (inactive); in the test with UO-31 it was > 100 µM (inactive).
In the case of `CN=[S+]([O-])(c1ccccc1)c1ccccc1`, the GI50 with A498, in the test with A549, in the test on CAKI-1, in the test on CCRF-CEM, in the test on EKVX and with HCC 2998 was > 100 µM (inactive) in each case. For the same compound, the GI50 in the test with HL-60, in the test on HOP-62, in the test with HOP-92, with M14, with NCI-H522 and in the test with SK-MEL-5 was > 100 µM (inactive) each time. Further, the GI50 in the test on SNB-19 was > 100 µM (inactive); with SNB-75, 96.8 µM (inactive); in the test on TK-10, > 100 µM (inactive); with U-251 it was > 100 µM (inactive); with UACC-62, > 100 µM (inactive); in the test on UO-31, > 100 µM (inactive).
Consider `c1ccc([P+](c2ccccc2)(c2ccccc2)C2Sc3ccccc3S2)cc1`, for which the GI50 in the test on A498 was 28.1 µM (inactive); in the test on A549 it was 15 µM (inactive); in the test on CAKI-1 it was 14.6 µM (inactive); with CCRF-CEM it was 13.8 µM (inactive); with EKVX it was 22.9 µM (inactive); in the test with HCC 2998 it was 15.7 µM (inactive). Moreover, the GI50 with HL-60 is 5.96 µM (inactive); in the test with HOP-62 it was 23.1 µM (inactive); in the test on HOP-92, > 100 µM (inactive); with M14, 15.3 µM (inactive); in the test on NCI-H522, 14.9 µM (inactive); with SK-MEL-5 it was 17.7 µM (inactive). The GI50 in the test with SNB-19 is 27.7 µM (inactive); in the test on SNB-75, 17.8 µM (inactive); in the test with TK-10, 21 µM (inactive); in the test with U-251 it was 16 µM (inactive); with UACC-62, 13.8 µM (inactive); in the test with UO-31, 16.1 µM (inactive).
In the case of `NC(=S)N/N=C(\CCC(=O)Nc1ccccc1[N+](=O)[O-])CC(=O)c1ccco1`, the GI50 in the test with A498 was 49.3 µM (inactive); with A549, > 100 µM (inactive); in the test on CAKI-1, > 100 µM (inactive); with CCRF-CEM, > 100 µM (inactive); in the test with EKVX, > 100 µM (inactive); with HCC 2998, > 100 µM (inactive). The GI50 with HL-60, in the test on HOP-62, in the test with HOP-92, in the test on M14, in the test on NCI-H522 and in the test with SK-MEL-5 was > 100 µM (inactive) each time. Also, the GI50 in the test with SNB-19, with SNB-75, with TK-10, in the test on U-251, in the test with UACC-62 and in the test with UO-31 was > 100 µM (inactive) each time.
As to `NC1=NC2=c3ccccc3=C(c3cnccn3)C2(c2cnccn2)c2ccccc21` (configuration not stated), the GI50 with A498 is 18.2 µM (inactive); with A549 it was 45.7 µM (inactive); in the test on CAKI-1 it was 42.8 µM (inactive); in the test with CCRF-CEM it was 89.7 µM (inactive); in the test on EKVX it was 44.7 µM (inactive); in the test on HCC 2998 it was > 100 µM (inactive). Moreover, the GI50 in the test with HL-60 is 52.8 µM (inactive); with HOP-62, > 100 µM (inactive); in the test on HOP-92 it was 37.9 µM (inactive); in the test with M14 it was > 100 µM (inactive); in the test on NCI-H522, 49.5 µM (inactive); in the test on SK-MEL-5, 34 µM (inactive). The GI50 with SNB-19 was 48.2 µM (inactive); in the test on SNB-75, 39.6 µM (inactive); in the test on TK-10, 87.9 µM (inactive); in the test on U-251, 98.9 µM (inactive); with UACC-62, > 100 µM (inactive); in the test on UO-31, 44.4 µM (inactive).
As to `Cc1cc(Br)c(N2C3=C(CC4=C2CCCC4=O)C(=O)CCC3)c(Br)c1`, the GI50 was 94.8 µM (inactive) with A498; 39.8 µM (inactive) with A549; > 100 µM (inactive) with CAKI-1; 10.3 µM (inactive) in the test with CCRF-CEM; 31 µM (inactive) with EKVX; > 100 µM (inactive) with HCC 2998. Further, the GI50 with HL-60 is 32.7 µM (inactive); in the test on HOP-92 it was 25.6 µM (inactive); in the test on M14 it was > 100 µM (inactive); with NCI/ADR-RES, 32.1 µM (inactive); in the test on SK-MEL-5, 38.7 µM (inactive); in the test on SNB-19, > 100 µM (inactive). Also, the GI50 was 46.1 µM (inactive) in the test with SNB-75; > 100 µM (inactive) with TK-10; 32.9 µM (inactive) in the test on U-251; 63.2 µM (inactive) in the test with UACC-62; 60.5 µM (inactive) in the test with UO-31.
As to `O=C(N/N=C1\C(=O)N(c2nccs2)C(=O)C(=O)C1c1nc2ccccc2s1)c1ccccc1O` (configuration not stated), the GI50 in the test with A498 was 65.3 µM (inactive); in the test on A549 it was 52.1 µM (inactive); in the test on CAKI-1 it was > 100 µM (inactive); in the test with CCRF-CEM, 39.5 µM (inactive); in the test on EKVX, > 100 µM (inactive); in the test on HCC 2998 it was 15 µM (inactive). Besides, the GI50 was 36.7 µM (inactive) in the test with HL-60; 23.9 µM (inactive) with HOP-62; > 100 µM (inactive) in the test with HOP-92; > 100 µM (inactive) with M14; 30.2 µM (inactive) in the test on NCI-H522; 47.5 µM (inactive) in the test on SK-MEL-5. For the same compound, the GI50 was 60 µM (inactive) with SNB-19; 3.3 µM (inactive) with SNB-75; > 100 µM (inactive) in the test on TK-10; 49.8 µM (inactive) in the test with U-251; 31.3 µM (inactive) in the test with UACC-62; 8.22 µM (inactive) in the test on UO-31.
With `Cc1nc2c(nc1C)C(=O)C1=C(C2=O)C2C=CC1CC2`, the GI50 in the test with A498 was 41.9 µM (inactive); with A549, 19.4 µM (inactive); with CAKI-1 it was 18.3 µM (inactive); in the test on CCRF-CEM it was 1.1 µM (active); in the test with EKVX it was 7 µM (inactive); in the test on HCC 2998 it was 29.4 µM (inactive). The GI50 with HL-60 was 1.44 µM (inactive); with HOP-62 it was 22.3 µM (inactive); with HOP-92, 1.97 µM (inactive); in the test on M14, 12.8 µM (inactive); in the test on NCI-H522, 4.35 µM (inactive); with SK-MEL-5 it was 2.05 µM (inactive). In addition, the GI50 is 32.6 µM (inactive) in the test with SNB-19; 28.6 µM (inactive) in the test with SNB-75; 28.8 µM (inactive) with TK-10; 5.35 µM (inactive) with U-251; 2.86 µM (inactive) in the test with UACC-62; 12.6 µM (inactive) in the test with UO-31.
`NC(=O)c1cc2ccc(O)cc2o/c1=N/NC(=O)c1ccccc1`: the GI50 was 40.5 µM (inactive) with A498; > 100 µM (inactive) with A549; 36.6 µM (inactive) with CAKI-1; 48.6 µM (inactive) with CCRF-CEM; > 100 µM (inactive) in the test on EKVX; 33.4 µM (inactive) with HCC 2998. For the same compound, the GI50 with HL-60 was 61 µM (inactive); in the test with HOP-62, > 100 µM (inactive); in the test on HOP-92 it was > 100 µM (inactive); in the test with M14, 86.5 µM (inactive); with NCI-H522, 42.3 µM (inactive); in the test with NCI/ADR-RES, > 100 µM (inactive). In addition, the GI50 in the test on SK-MEL-5 was 39.8 µM (inactive); in the test on SNB-19, > 100 µM (inactive); in the test on SNB-75, 25.9 µM (inactive); in the test with TK-10, 36.1 µM (inactive); in the test on U-251, > 100 µM (inactive); in the test with UACC-62, 62.2 µM (inactive). Moreover, the GI50 in the test with UO-31 is 67 µM (inactive).
On to `O=C(Nc1nc2ncn(CCOC(=O)c3ccccc3)c2c(=S)[nH]1)c1ccccc1`, for which the GI50 was 95.7 µM (inactive) with A498; 66.2 µM (inactive) in the test with A549; > 100 µM (inactive) with CAKI-1; > 100 µM (inactive) in the test on CCRF-CEM; > 100 µM (inactive) in the test on EKVX; > 100 µM (inactive) in the test on HCC 2998. For the same compound, the GI50 is > 100 µM (inactive) in the test with HL-60; 28.2 µM (inactive) with HOP-62; 42.7 µM (inactive) with HOP-92; > 100 µM (inactive) with M14; 21 µM (inactive) in the test with NCI-H522; > 100 µM (inactive) in the test with SK-MEL-5. In addition, the GI50 in the test on SNB-19 was 71.9 µM (inactive); in the test on SNB-75 it was 23.8 µM (inactive); in the test with TK-10, > 100 µM (inactive); in the test on U-251, 31.8 µM (inactive); in the test with UACC-62 it was 56.2 µM (inactive); with UO-31, 61.7 µM (inactive).
Consider `N#C/C(=C\c1ccc(O)cc1)C(N)=O`, for which the GI50 was > 95.7 µM (inactive) and 57.3 µM (inactive) in the test on A498; > 100 µM (inactive) in the test with A549; > 100 µM (inactive) in the test on CAKI-1; > 100 µM (inactive) in the test with CCRF-CEM; > 50.7 µM (inactive) in the test with EKVX; > 100 µM (inactive) with HCC 2998. Besides, the GI50 with HL-60 is > 100 µM (inactive) and 57.7 µM (inactive); with HOP-62, > 100 µM (inactive); with HOP-92, > 100 µM (inactive); in the test with M14, > 100 µM (inactive); with NCI/ADR-RES, > 100 µM (inactive); with SK-MEL-5 it was > 100 µM (inactive). The GI50 is > 100 µM (inactive) with SNB-19; > 100 µM (inactive) in the test on TK-10; > 100 µM (inactive) with U-251; > 100 µM (inactive) with UACC-62; 61.5 µM (inactive) and 91.6 µM (inactive) in the test on UO-31.
